In brackets after ≈: the same amount, converted by molar mass.
Experiments:
Aspergillus flavus [1] = assay: Antifungal activity against Aspergillus flavus ATCC 16870 assessed as fungal growth inhibition incubated for 24 hrs by CLSI protocol based broth microdilution method; assay type: functional
Candida albicans [2] = assay: Antifungal activity against Candida albicans ATCC 76615 assessed as fungal growth inhibition incubated for 24 hrs by CLSI protocol based broth microdilution method; assay type: functional
Aspergillus fumigatus [3] = assay: Antifungal activity against Aspergillus fumigatus GIMCC 3.19 assessed as fungal growth inhibition incubated for 24 hrs by CLSI protocol based broth microdilution method; assay type: functional
Candida tropicalis = assay: Inhibition of Candida tropicalis ATCC 750 chitin synthase using UDP-GlcNAc as substrate at 300 ug/ml incubated for 1 hrs by absorbance based assay relative to control; details: dose 300.0 µg/ml
[4] = Inhibition of Candida tropicalis ATCC 750 chitin synthase using UDP-GlcNAc as substrate incubated for 1 hrs by absorbance based assay
Cryptococcus neoformans [5] = assay: Antifungal activity against Cryptococcus neoformans ATCC 208821 assessed as fungal growth inhibition incubated for 24 hrs by CLSI protocol based broth microdilution method; assay type: functional
Cryptococcus neoformans [6] = assay: Synergistic antifungal activity against Cryptococcus neoformans ATCC 208821 assessed as fungal growth inhibition incubated for 24 hrs in the presence of fluconazole by broth dilution based checkerboard method; assay type: functional
Cryptococcus neoformans [7] = assay: Synergistic antifungal activity against Cryptococcus neoformans ATCC 208821 assessed as fractional inhibitory concentration index incubated for 24 hrs in the presence of fluconazole by broth dilution based checkerboard method; assay type: functional
Candida albicans [8] = assay: Synergistic antifungal activity against Candida albicans ATCC 76615 assessed as fungal growth inhibition incubated for 24 hrs in the presence of fluconazole by broth dilution based checkerboard method; assay type: functional
Aspergillus flavus [9] = assay: Synergistic antifungal activity against Aspergillus flavus ATCC 16870 assessed as fungal growth inhibition incubated for 24 hrs in the presence of fluconazole by broth dilution based checkerboard method; assay type: functional
Aspergillus flavus [10] = assay: Synergistic antifungal activity against Aspergillus flavus ATCC 16870 assessed as fractional inhibitory concentration index incubated for 24 hrs in the presence of fluconazole by broth dilution based checkerboard method; assay type: functional
Aspergillus fumigatus [11] = assay: Synergistic antifungal activity against Aspergillus fumigatus GIMCC 3.19 assessed as fungal growth inhibition incubated for 24 hrs in the presence of fluconazole by broth dilution based checkerboard method; assay type: functional
Aspergillus fumigatus [12] = assay: Synergistic antifungal activity against Aspergillus fumigatus GIMCC 3.19 assessed as fractional inhibitory concentration index incubated for 24 hrs in the presence of fluconazole by broth dilution based checkerboard method; assay type: functional
Candida albicans [13] = assay: Synergistic antifungal activity against Candida albicans ATCC 76615 assessed as fractional inhibitory concentration index incubated for 24 hrs in the presence of fluconazole by broth dilution based checkerboard method; assay type: functional
Candida albicans [14] = assay: Antifungal activity against fluconazole-resistant Candida albicans ATCC 76615R assessed as fungal growth inhibition; assay type: functional
Cryptococcus neoformans [15] = assay: Antifungal activity against fluconazole-resistant Cryptococcus neoformans ATCC 208821R assessed as fungal growth inhibition; assay type: functional
Candida albicans [16] = assay: Antifungal activity against micafungin-resistant Candida albicans ATCC 76615R assessed as fungal growth inhibition; assay type: functional

SMILES | MIC (Aspergillus flavus [1]) | MIC (Candida albicans [2]) | MIC (Aspergillus fumigatus [3]) | inhibition (Candida tropicalis) | IC50 [4] | MIC (Cryptococcus neoformans [5]) | MIC (Cryptococcus neoformans [6]) | fractional inhibitory concentration index (FICI) (Cryptococcus neoformans [7]) | MIC (Candida albicans [8]) | MIC (Aspergillus flavus [9]) | fractional inhibitory concentration index (FICI) (Aspergillus flavus [10]) | MIC (Aspergillus fumigatus [11]) | fractional inhibitory concentration index (FICI) (Aspergillus fumigatus [12]) | fractional inhibitory concentration index (FICI) (Candida albicans [13]) | MIC (Candida albicans [14]) | MIC (Cryptococcus neoformans [15]) | MIC (Candida albicans [16])
COc1ccc2c(c1)C1(CCN(C(=O)/C=C/C(=O)Nc3ccc(C)cc3)CC1)OC(=O)N2 | 256 mg/L (≈ 588 µM) | 128 mg/L (≈ 294 µM) | 256 mg/L (≈ 588 µM) | 65% | 370 µM | 256 mg/L (≈ 588 µM) | – | – | – | – | – | – | – | – | – | – | –
COc1ccc2c(c1)C1(CCN(C(=O)/C=C/C(=O)Nc3ccccc3C)CC1)OC(=O)N2 | 512 mg/L (≈ 1180 µM) | 256 mg/L (≈ 588 µM) | > 512 mg/L | 14% | – | > 512 mg/L | – | – | – | – | – | – | – | – | – | – | –
COc1ccc2c(c1)C1(CCN(C(=O)/C=C/C(=O)Nc3cccc4ccccc34)CC1)OC(=O)N2 | > 512 mg/L | 256 mg/L (≈ 543 µM) | > 512 mg/L | 46% | – | 256 mg/L (≈ 543 µM) | – | – | – | – | – | – | – | – | – | – | –
COc1cccc(NC(=O)/C=C/C(=O)N2CCC3(CC2)OC(=O)Nc2ccc(OC)cc23)c1 | 128 mg/L (≈ 284 µM) | 256 mg/L (≈ 567 µM) | 128 mg/L (≈ 284 µM) | 37% | – | 64 mg/L (≈ 142 µM) | – | – | – | – | – | – | – | – | – | – | –
COc1ccc2c(c1)C1(CCN(C(=O)/C=C/C(=O)Nc3ccc(Cl)cc3)CC1)OC(=O)N2 | 256 mg/L (≈ 562 µM) | 512 mg/L (≈ 1120 µM) | 128 mg/L (≈ 281 µM) | 51% | – | 512 mg/L (≈ 1120 µM) | – | – | – | – | – | – | – | – | – | – | –
COc1ccc2c(c1)C1(CCN(C(=O)CC(=O)Nc3ccc(C)cc3)CC1)OC(=O)N2 | > 512 mg/L | 512 mg/L (≈ 1210 µM) | > 512 mg/L | 13% | – | > 512 mg/L | – | – | – | – | – | – | – | – | – | – | –
COc1ccc2c(c1)C1(CCN(C(=O)/C=C/C(=O)Nc3ccccc3)CC1)OC(=O)N2 | 53.3 mg/L (≈ 127 µM) | 64 mg/L (≈ 152 µM) | 53.3 mg/L (≈ 127 µM) | 69% | 280 µM | 64 mg/L (≈ 152 µM) | 16 mg/L | 1.125 | 32 mg/L | 64 mg/L | 1.125 | 26 mg/L | 0.55 | 1 | – | – | –
COc1ccc(NC(=O)C(O)C(O)C(=O)N2CCC3(CC2)OC(=O)Nc2ccc(OC)cc23)cc1 (stereo unspecified) | 512 mg/L (≈ 1050 µM) | > 512 mg/L | 256 mg/L (≈ 527 µM) | 52% | – | > 512 mg/L | – | – | – | – | – | – | – | – | – | – | –
COc1ccc(NC(=O)/C=C/C(=O)N2CCC3(CC2)OC(=O)Nc2ccc(OC)cc23)cc1 | 64 mg/L (≈ 142 µM) | 64 mg/L (≈ 142 µM) | 128 mg/L (≈ 284 µM) | 82% | 210 µM | 256 mg/L (≈ 567 µM) | 32 mg/L | 0.625 | 6.67 mg/L | 128 mg/L | 3 | 26 mg/L | 1.125 | 1.1 | – | – | –
COc1ccc2c(c1)C1(CCN(C(=O)CCC(=O)Nc3ccc(Br)cc3)CC1)OC(=O)N2 | 256 mg/L (≈ 510 µM) | 107 mg/L (≈ 212 µM) | 512 mg/L (≈ 1020 µM) | 23% | – | 256 mg/L (≈ 510 µM) | – | – | – | – | – | – | – | – | – | – | –
COc1ccc2c(c1)C1(CCN(C(=O)CC(=O)Nc3ccc(Br)cc3)CC1)OC(=O)N2 | 256 mg/L (≈ 524 µM) | 512 mg/L (≈ 1050 µM) | 256 mg/L (≈ 524 µM) | 18% | – | 256 mg/L (≈ 524 µM) | – | – | – | – | – | – | – | – | – | – | –
COc1ccc2c(c1)C1(CCN(C(=O)/C=C/C(=O)Nc3ccccc3[N+](=O)[O-])CC1)OC(=O)N2 | 512 mg/L (≈ 1100 µM) | 512 mg/L (≈ 1100 µM) | 256 mg/L (≈ 549 µM) | 18% | – | 256 mg/L (≈ 549 µM) | – | – | – | – | – | – | – | – | – | – | –
COc1ccc2c(c1)C1(CCN(C(=O)C(O)C(O)C(=O)Nc3ccc(Br)cc3)CC1)OC(=O)N2 (stereo unspecified) | 512 mg/L (≈ 958 µM) | > 512 mg/L | > 512 mg/L | 43% | – | 512 mg/L (≈ 958 µM) | – | – | – | – | – | – | – | – | – | – | –
COc1ccc2c(c1)C1(CCN(C(=O)/C=C/C(=O)Nc3ccc(F)c(Cl)c3)CC1)OC(=O)N2 | 16 mg/L (≈ 33.8 µM) | 64 mg/L (≈ 135 µM) | 16 mg/L (≈ 33.8 µM) | 70% | 160 µM | 64 mg/L (≈ 135 µM) | 32 mg/L | 0.625 | 64 mg/L | 64 mg/L | 1.125 | 8 mg/L | 0.75 | 2 | 53.3 mg/L (≈ 113 µM) | 64 mg/L (≈ 135 µM) | 64 mg/L (≈ 135 µM)
COc1ccc2c(c1)C1(CCN(C(=O)/C=C/C(=O)Nc3ccc([N+](=O)[O-])cc3)CC1)OC(=O)N2 | > 512 mg/L | 512 mg/L (≈ 1100 µM) | > 512 mg/L | 13% | – | > 512 mg/L | – | – | – | – | – | – | – | – | – | – | –
